Legend:
Experiment in all cases: relative viability (nuclei count vs DMSO), 5 days (fraction); higher = more cells survive
LC-2-ad = test system: LC-2-ad
Procedure, shortened: (§1)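 Cells from lung cancer lines were seeded into 1536-well plates and, one day later, dosed by pin tool. Treatments were either a single drug or a fixed dose of an anchor drug with five library-drug doses (not always all listed) in √10 steps. After 5 days, nuclei were stained in a one-step fixation (final 0.05% Triton X-100, 1% formaldehyde, 1 ug/ml Hoechst) and counted on 4× images, and relative viability is the treated-to-vehicle nuclei ratio, as the median of duplicate plates.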

UMC-11 = test system: UMC-11
Procedure, shortened: as §1

CAL-12T = test system: CAL-12T
Procedure, shortened: as §1

HCC-827 = test system: HCC-827
Procedure, shortened: as §1

RERF-LC-KJ = test system: RERF-LC-KJ
Procedure, shortened: as §1

LU99A = test system: LU99A
Procedure, shortened: as §1

201T = test system: 201T
Procedure, shortened: as §1

LCLC-103H = test system: LCLC-103H
Procedure, shortened: as §1

NCI-H322M = test system: NCI-H322M
Procedure, shortened: as §1

NCI-H2228 = test system: NCI-H2228
Procedure, shortened: as §1

LK-2 = test system: LK-2
Procedure, shortened: as §1

NCI-H1792 = test system: NCI-H1792
Procedure, shortened: as §1

NCI-H1437 = test system: NCI-H1437
Procedure, shortened: as §1

BEN = test system: BEN
Procedure, shortened: as §1

NCI-H1651 = test system: NCI-H1651
Procedure, shortened: as §1

NCI-H23 = test system: NCI-H23
Procedure, shortened: as §1

COR-L 105 = test system: COR-L 105
Procedure, shortened: as §1

NCI-H2405 = test system: NCI-H2405
Procedure, shortened: as §1

HCC-15 = test system: HCC-15
Procedure, shortened: as §1

HARA = test system: HARA
Procedure, shortened: as §1

NCI-H2085 = test system: NCI-H2085
Procedure, shortened: as §1

H3255 = test system: H3255
Procedure, shortened: as §1

LXF-289 = test system: LXF-289
Procedure, shortened: as §1

`O=C(O)CCCCC(CCSCc1ccccc1)SCc1ccccc1` (stereo not given) [CPI-613] + O=C(c1cc(Cc2n[nH]c(=O)c3ccccc23)ccc1F)N1CCN(C(=O)C2CC2)CC1 [Olaparib] (partner 8 µM) gave a relative viability (LC-2-ad; first compound 5 µM) of 0.629, a relative viability (LC-2-ad; first compound 15.81 µM) of 0.634 and a relative viability (LC-2-ad; first compound 50 µM) of 0.653. For the same molecule, the relative viability (LC-2-ad; first compound 158.11 µM) was 0.214, the relative viability (LC-2-ad; first compound 500 µM) was 0.0817 and the relative viability (UMC-11; first compound 5 µM) was 0.352. For the same molecule, the relative viability (UMC-11; first compound 15.81 µM) was 0.371, the relative viability (UMC-11; first compound 50 µM) was 0.375 and the relative viability (UMC-11; first compound 158.11 µM) was 0.155. The relative viability (UMC-11; first compound 500 µM) was 0.115, the relative viability (CAL-12T; first compound 5 µM) was 0.72 and the relative viability (CAL-12T; first compound 15.81 µM) was 0.634. The relative viability (CAL-12T; first compound 50 µM) was 0.627, the relative viability (CAL-12T; first compound 158.11 µM) was 0.473 and the relative viability (CAL-12T; first compound 500 µM) was 0.488. It also gave a relative viability (HCC-827; first compound 5 µM) of 0.558, a relative viability (HCC-827; first compound 15.81 µM) of 0.602 and a relative viability (HCC-827; first compound 50 µM) of 0.691. For the same molecule, the relative viability (HCC-827; first compound 158.11 µM) was 0.691, the relative viability (HCC-827; first compound 500 µM) was 0.538 and the relative viability (RERF-LC-KJ; first compound 5 µM) was 0.979. It also gave a relative viability (RERF-LC-KJ; first compound 15.81 µM) of 0.83, a relative viability (RERF-LC-KJ; first compound 50 µM) of 0.804 and a relative viability (RERF-LC-KJ; first compound 158.11 µM) of 0.273. It also gave a relative viability (RERF-LC-KJ; first compound 500 µM) of 0.133, a relative viability (LU99A; first compound 5 µM) of 0.26 and a relative viability (LU99A; first compound 15.81 µM) of 0.237. It also gave a relative viability (LU99A; first compound 50 µM) of 0.242, a relative viability (LU99A; first compound 158.11 µM) of 0.127 and a relative viability (LU99A; first compound 500 µM) of 0.161. It also gave a relative viability (201T; first compound 5 µM) of 0.849, a relative viability (201T; first compound 15.81 µM) of 0.788 and a relative viability (201T; first compound 50 µM) of 0.776. The relative viability (201T; first compound 158.11 µM) was 0.594, the relative viability (201T; first compound 500 µM) was 0.633 and the relative viability (LCLC-103H; first compound 5 µM) was 0.755. For the same molecule, the relative viability (LCLC-103H; first compound 15.81 µM) was 0.669, the relative viability (LCLC-103H; first compound 50 µM) was 0.733 and the relative viability (LCLC-103H; first compound 158.11 µM) was 0.55. It also gave a relative viability (LCLC-103H; first compound 500 µM) of 0.717, a relative viability (NCI-H322M; first compound 5 µM) of 0.74 and a relative viability (NCI-H322M; first compound 15.81 µM) of 0.769. The relative viability (NCI-H322M; first compound 50 µM) was 0.761, the relative viability (NCI-H322M; first compound 158.11 µM) was 0.594 and the relative viability (NCI-H322M; first compound 500 µM) was 0.106. The relative viability (NCI-H2228; first compound 5 µM) was 0.532, the relative viability (NCI-H2228; first compound 15.81 µM) was 0.411 and the relative viability (NCI-H2228; first compound 50 µM) was 0.634. The relative viability (NCI-H2228; first compound 158.11 µM) was 0.628, the relative viability (NCI-H2228; first compound 500 µM) was 0.185 and the relative viability (LK-2; first compound 5 µM) was 0.714. For the same molecule, the relative viability (LK-2; first compound 15.81 µM) was 0.702, the relative viability (LK-2; first compound 50 µM) was 0.749 and the relative viability (LK-2; first compound 158.11 µM) was 0.796. The relative viability (LK-2; first compound 500 µM) was 0.736, the relative viability (NCI-H1792; first compound 5 µM) was 0.391 and the relative viability (NCI-H1792; first compound 15.81 µM) was 0.358. For the same molecule, the relative viability (NCI-H1792; first compound 50 µM) was 0.328, the relative viability (NCI-H1792; first compound 158.11 µM) was 0.0603 and the relative viability (NCI-H1792; first compound 500 µM) was 0.087. The relative viability (NCI-H1437; first compound 5 µM) was 0.599, the relative viability (NCI-H1437; first compound 15.81 µM) was 0.595 and the relative viability (NCI-H1437; first compound 50 µM) was 0.508. The relative viability (NCI-H1437; first compound 158.11 µM) was 0.112, the relative viability (NCI-H1437; first compound 500 µM) was 0.0622 and the relative viability (BEN; first compound 5 µM) was 1.09. For the same molecule, the relative viability (BEN; first compound 15.81 µM) was 0.853, the relative viability (BEN; first compound 50 µM) was 0.909 and the relative viability (BEN; first compound 158.11 µM) was 0.786. For the same molecule, the relative viability (BEN; first compound 500 µM) was 0.931, the relative viability (NCI-H1651; first compound 5 µM) was 0.189 and the relative viability (NCI-H1651; first compound 15.81 µM) was 0.192. For the same molecule, the relative viability (NCI-H1651; first compound 50 µM) was 0.189, the relative viability (NCI-H1651; first compound 158.11 µM) was 0.198 and the relative viability (NCI-H1651; first compound 500 µM) was 0.175. The relative viability (NCI-H23; first compound 5 µM) was 0.33, the relative viability (NCI-H23; first compound 15.81 µM) was 0.28 and the relative viability (NCI-H23; first compound 50 µM) was 0.282. It also gave a relative viability (NCI-H23; first compound 158.11 µM) of 0.0911, a relative viability (NCI-H23; first compound 500 µM) of 0.0098 and a relative viability (COR-L 105; first compound 5 µM) of 0.78. The relative viability (COR-L 105; first compound 15.81 µM) was 0.685, the relative viability (COR-L 105; first compound 50 µM) was 0.739 and the relative viability (COR-L 105; first compound 158.11 µM) was 0.268. For the same molecule, the relative viability (COR-L 105; first compound 500 µM) was 0.28, the relative viability (NCI-H2405; first compound 5 µM) was 0.89 and the relative viability (NCI-H2405; first compound 15.81 µM) was 0.787. It also gave a relative viability (NCI-H2405; first compound 50 µM) of 0.781, a relative viability (NCI-H2405; first compound 158.11 µM) of 0.25 and a relative viability (NCI-H2405; first compound 500 µM) of 0.0972. It also gave a relative viability (HCC-15; first compound 5 µM) of 0.743, a relative viability (HCC-15; first compound 15.81 µM) of 0.712 and a relative viability (HCC-15; first compound 50 µM) of 0.612. For the same molecule, the relative viability (HCC-15; first compound 158.11 µM) was 0.178, the relative viability (HCC-15; first compound 500 µM) was 0.0853 and the relative viability (HARA; first compound 5 µM) was 0.509. The relative viability (HARA; first compound 15.81 µM) was 0.813, the relative viability (HARA; first compound 50 µM) was 0.772 and the relative viability (HARA; first compound 158.11 µM) was 0.25. For the same molecule, the relative viability (HARA; first compound 500 µM) was 0.0476, the relative viability (NCI-H2085; first compound 5 µM) was 0.745 and the relative viability (NCI-H2085; first compound 15.81 µM) was 0.712. It also gave a relative viability (NCI-H2085; first compound 50 µM) of 0.725, a relative viability (NCI-H2085; first compound 158.11 µM) of 0.362 and a relative viability (NCI-H2085; first compound 500 µM) of 0.209. It also gave a relative viability (H3255; first compound 5 µM) of 0.539, a relative viability (H3255; first compound 15.81 µM) of 0.587 and a relative viability (H3255; first compound 50 µM) of 0.557. It also gave a relative viability (H3255; first compound 158.11 µM) of 0.527, a relative viability (H3255; first compound 500 µM) of 0.517 and a relative viability (LXF-289; first compound 5 µM) of 0.988. For the same molecule, the relative viability (LXF-289; first compound 15.81 µM) was 1, the relative viability (LXF-289; first compound 50 µM) was 1 and the relative viability (LXF-289; first compound 158.11 µM) was 0.692. For the same molecule, the relative viability (LXF-289; first compound 500 µM) was 0.8.

From the supplement of paper PMC10307832
